Assays:
DBTRG cells = assay: Soft agar anchorage independent assay; format: cell-based; settings: 504 h; DBTRG colonies scored 3 weeks after plating; range over the listed examples, given with mixed units nM and μM
Protocol: DBTRG cells were seeded into a 24-well format in the presence of […] carrier alone or compound (0.6% DMSO (v/v)). Each well is composed of two agar layers: the bottom layer consists of 0.6% Agar while the top has 0.35% Agar plus cells and compound. Cells (2500 per well) were incubated with […] dilution compound the day of the plating and the colonies were scored 3 weeks later after o/n staining with MTT solution. Imaging and counting of the colonies was done with the GelCount™ instrument (Oxford Optronix, UK). For IC50 determination the data were expressed as % of control, values were calculated using XLFit version 4.2, with a four parameters sigmoid 5 function (XLFit model 205).

Wnt/β-catenin pathway = assay: Wnt reporter assay (TCF-Luciferase, Firefly) in DBTRG-05MG cells; format: cell-based; settings: Homo sapiens, TCF-Luciferase (Firefly) read out, 24 hours after compound addition, range given with mixed units nM and μM, read-out: IC50 value in the reporter assay
In short: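 DBTRG-05MG cells carrying a 3×(4×TCF)-driven Firefly luciferase reporter, with Renilla also read, were plated 36 h before an 8-point compound dilution series (0.6% DMSO). Lysis and Dual-Luciferase readout followed 24 h after compound addition. Firefly and Renilla were each expressed as % of control and fitted to a four-parameter sigmoid.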

IC50 (DBTRG cells) | IC50 (Wnt/β-catenin pathway) | SMILES
32 to 2900 nM | 35 to 23000 nM | COc1cc2c(cc1F)n(C)c(=O)n2C[C@H]1CC[C@H](C(=O)N2CCN(C(C)=O)CC2)CC1 [Example 161]
32 to 2900 nM | 35 to 23000 nM | COCCOc1cc2c(cc1F)n(C)c(=O)n2C[C@H]1CC[C@H](C(=O)Nc2ccncc2)CC1 [Example 186]
32 to 2900 nM | 35 to 23000 nM | COc1cc2c(cc1F)n(C)c(=O)n2C[C@H]1CC[C@H](c2nnc(-c3cnn(C)c3)o2)CC1 [Example 182]
32 to 2900 nM | 35 to 23000 nM | COCCOc1cc2c(cc1F)n(C)c(=O)n2C[C@H]1CC[C@H](c2nnc(-c3cnn(C)c3)o2)CC1 [Example 185]
32 to 2900 nM | 35 to 23000 nM | COc1ccc2c(c1)n(C[C@H]1CC[C@H](c3cc(-c4cnn(C)c4)n[nH]3)CC1)c(=O)n2C [Example 153]
– | 35 to 23000 nM | Cn1cc(C2=CCN(C(=O)[C@H]3CC[C@H](Cn4c(=O)n(C)c5ccc(C#N)cc54)CC3)CC2)cn1 [Example 154]
– | 35 to 23000 nM | COc1cc2c(cc1F)n(C)c(=O)n2C[C@H]1CC[C@H](c2nnc(-c3cccnc3)o2)CC1 [Example 175]

The next lines start with the compound.

SMILES | IC50 (DBTRG cells) | IC50 (Wnt/β-catenin pathway)
COc1ccc2c(c1)n(C[C@H]1CC[C@H](C(=O)N3C[C@@H](C)O[C@@H](C)C3)CC1)c(=O)n2C [Example 61] | 32 to 2900 nM | 35 to 23000 nM
Cn1c(=O)n(C[C@H]2CC[C@H](C(=O)Nc3ccncc3)CC2)c2cc(OCCN3CCOCC3)ccc21 [Example 152] | 32 to 2900 nM | 35 to 23000 nM
C#Cc1ccc2c(c1)n(C[C@H]1CC[C@H](C(=O)N3CCN(C(C)=O)CC3)CC1)c(=O)n2C [Example 14, 3-[trans-4-(4-Acetyl-piperazine-1-carbonyl)-cyclohexylmethyl]-5-ethynyl-1-methyl-1,3-dihydro-benzoimidazol-2-one] | 32 to 2900 nM | 35 to 23000 nM
COCCOc1ccc2c(c1)n(C[C@H]1CC[C@H](c3nnc(-c4cnn(C)c4)o3)CC1)c(=O)n2C [Example 147] | 32 to 2900 nM | 35 to 23000 nM
COCC#Cc1ccc2c(n1)n(C[C@H]1CC[C@H](C(=O)Nc3ccncc3)CC1)c(=O)n2C [Example 115] | 32 to 2900 nM | 35 to 23000 nM
COCCOc1ccc2c(c1)n(C[C@H]1CC[C@H](C(=O)Nc3ccnnc3)CC1)c(=O)n2C [Example 121] | 32 to 2900 nM | 35 to 23000 nM
COc1ccc2c(c1)n(C[C@H]1CC[C@H](c3nnc(-c4cnn(C)c4)o3)CC1)c(=O)n2C [Example 106] | 32 to 2900 nM | 35 to 23000 nM
CC(=O)N1CCN(C(=O)[C@H]2CC[C@H](Cn3c(=O)n(C)c4ccc(C5CC5)cc43)CC2)CC1 [Example 68] | 32 to 2900 nM | 35 to 23000 nM
COc1ccc2c(c1)n(C[C@H]1CC[C@H](C(=O)Nc3ccncc3)CC1)c(=O)n2C [Example 29] | 32 to 2900 nM | 35 to 23000 nM
COc1cc2c(cc1F)n(C)c(=O)n2C[C@H]1CC[C@H](C(=O)Nc2ccncc2)CC1 [Example 1, Trans-4-(5-Fluoro-6-Methoxy-3-methyl-2-oxo-2,3-dihydro-benzoimidazol-1-ylmethyl)-cyclohexanecarboxylic acid pyridine-4-ylamide] | 32 to 2900 nM | 35 to 23000 nM
COCCOc1ccc2c(c1)n(C[C@H]1CC[C@H](C(=O)N3CCN(C(C)=O)CC3)CC1)c(=O)n2C [Example 71] | 32 to 2900 nM | 35 to 23000 nM
Cn1c(=O)n(C[C@H]2CC[C@H](C(=O)Nc3ccncc3)CC2)c2cc(C(F)(F)F)ccc21 [Example 22] | 32 to 2900 nM | 35 to 23000 nM
COCCOc1ccc2c(c1)n(C[C@H]1CC[C@H](C(=O)Nc3ccncc3)CC1)c(=O)n2C [Example 72] | 32 to 2900 nM | 35 to 23000 nM
COc1ccc2c(c1)n(C[C@H]1CC[C@H](C(=O)N3CCSCC3)CC1)c(=O)n2C [Example 62] | – | 35 to 23000 nM
COc1ccc2c(c1)n(C[C@H]1CC[C@H](c3nnc(C4CCOCC4)o3)CC1)c(=O)n2C [Example 145] | – | 35 to 23000 nM
Cn1c(=O)n(C[C@H]2CC[C@H](C(=O)N3CCN(c4ncccn4)CC3)CC2)c2c(Cl)cccc21 [Example 21] | – | 35 to 23000 nM
